The values below come from US7468369B2, “Sulfonyl pyrrolidines, method for producing the same and their use as drugs” (Sanofi-Aventis, priority 2005, dated 2008).

Each structure is given as a SMILES string. Structures can show the parent of a compound that is named as a salt.

This experiment deals with human ABCA1 promoter. Briefly: ABCA1 promoter test (luciferase reporter in stably transfected THP1 cell line). Type of experiment: cell-based. The note with it: Homo sapiens, THP-1; ABCA1 reporter cell line (THP1, PMA-differentiated), 24 h incubation, luciferase chemiluminescence; read-out: E50 ABCA1. The procedure:
The potency of substances which activate expression of the human ABCA1 gene via its promoter is analyzed by using a stably transfected THP1 cell line (human monocyte cell line) which is referred to herein as ABCA1 reporter cell line. It contains a fragment, 3.2 kb in size and stably integrated into the genome, of the human ABCA1 promoter in front of a luciferase reporter element. Expression of the luciferase reporter gene is only low without addition of an ABCA1 expression activator. The substances stimulating ABCA1 expression bring about, via activation of the ABCA1 promoter, an enhanced expression of the luciferase reporter gene. The luciferase which is formed can be detected via an appropriate substrate by means of chemiluminescence.
Construction of the Cell Line
The ABCA1 reporter line was prepared as follows: firstly the neomycin resistance gene (Acc. No.: AJ000156) was introduced into the luciferase reporter plasmid pLG3basic (#1751, Promega) 3′ below the luciferase reporter element. Subsequently, an ABCA1 promoter fragment, 3.2 kb in size and amplified from human genomic DNA (#6550-1, Clontech) by the polymerase chain reaction, was cloned in 5′ above the luciferase reporter element. The reporter plasmid produced in this way was called pGL3BN-ABCA1P. Luciferase expression in this plasmid is controlled by the ABCA1 promoter. Cloning and sequencing of the construct took place in analogy to the description in Sambrook J et al. (Molecular cloning, Cold Spring Harbor Laboratory Press, 1989). For stable transfection into THP1 cells, firstly pGL3BN-ABCA1P was linearized with a restriction endonuclease and then introduced into the THP1 cells as stated in Ausubel, F. M. et al. (Current protocols in molecular biology, Vol. 1-3, John Wiley & Sons, Inc., 1995).
The activity of ABCA1 expression activators is determined in a 3-day test which is described below:
The ABCA1 reporter cell line comprises suspension cells. These are cultured until the concentration is 0.5×10^6 cells/ml in RPMI medium (#52400-025, Invitrogen) which is mixed with the following additions: 10% FCS (fetal calf serum; #16000-044, invitrogen), 0.5 mg/ml Geneticin (#10131-019, invitrogen) and 1% penicillin-streptomycin solution (#15140-122, invitrogen). The culturing takes place in standard cell culture flasks (#353112, Becton Dickinson) in a cell culture incubator at 37° C. in the presence of 5% CO2.
For the ABCA1 promoter test, the suspension cells are centrifuged at 1200 rpm in 50 ml tubes. The supernatant is aspirated off, and the pellet is resuspended in 15 ml of RPMI medium and counted in a cell counter. After dilution to 175 000 cells/ml, 0.1 μg/ml PMA (phorbol 12-myristate 13-acetate, #8139-5MG, Sigma) is added in order to induce differentiation of the monocytic THP1 suspension cells into adherent macrophages. 35 000 cells in each well are seeded in a 96-well microtiter plate with clear plastic base (#3610, Corning Costar). The plates are incubated in a cell culture incubator at 37° C. and 5% CO2 for 24 h.
The ABCA1 expression activators to be tested are dissolved in a concentration of 10 mM in DMSO. This stock solution is diluted in the RPMI medium (mixed with 0.1 μg/ml PMA) described above. Test substances are tested in 11 different concentrations in the range from […] to 330 pM. The medium of the ABCA1 reporter cell line seeded on day 1 is completely removed by aspiration and the diluted test substances are immediately added to the cells. The dilution and addition of the substances takes place with a pipetting robot (Beckman FX). The final volume of the test substances diluted in medium is 100 μl per well of a 96-well microtiter plate. The DMSO concentration in the test is less than 0.1% v/v in order to avoid cytotoxic effects of the solvent.
The test plates are incubated in an incubator at 37° C. and 5% CO2 for 24 h.
The ABCA1 reporter cells treated with the test substances are removed from the incubator and the medium is aspirated off. […]
(A reporter such as luciferase makes a cellular process visible.)

As to `COc1ccc(S(=O)(=O)N2C[C@@H](C(=O)N3CCN(c4cc(Cl)ccc4Cl)CC3)[C@H](c3ccccc3)C2)cc1` [Example 75, [4-(2,5-Dichlorophenyl)piperazin-1-yl]-[1-(4-methoxybenzenesulfonyl)-3,4-trans-4-phenylpyrrolidin-3-yl]methanone trifluoroacetate], the EC50 was 980 nM.

For the molecule `COc1ccc(OC)c(N2CCN(C(=O)[C@@H]3CN(S(=O)(=O)CC(F)(F)F)C[C@H]3c3ccccc3)CC2)c1` [Example 76, [4-(2,5-Dimethoxyphenyl)piperazin-1-yl]-[3,4-trans-4-phenyl-1-(2,2,2-trifluoroethanesulfonyl)pyrrolidin-3-yl]methanone trifluoroacetate], the EC50 amounted to 3120 nM.

For the molecule `COc1ccc(S(=O)(=O)N2C[C@@H](C(=O)N3CCN(c4cc(OC)ccc4OC)CC3)[C@H](c3ccccc3)C2)cc1` [Example 79, [4-(2,5-Dimethoxyphenyl)piperazin-1-yl]-[1-(4-methoxybenzenesulfonyl)-3,4-trans-4-phenylpyrrolidin-3-yl]methanone trifluoroacetate], the EC50 was 1580 nM.

As for `COc1ccc(OC)c(N2CCN(C(=O)[C@@H]3CN(S(=O)(=O)c4cccc(C)c4)C[C@H]3c3ccccc3)CC2)c1` [Example 80, [4-2,5-Dimethoxyphenyl)piperazin-1-yl]-[3,4-trans-4-phenyl-1-(toluene-3-sulfonyl)pyrrolidin-3-yl]methanone trifluoroacetate], the EC50 was determined as 3150 nM.

Take `COc1ccc(OC)c(N2CCN(C(=O)[C@@H]3CN(S(=O)(=O)c4c(C)noc4C)C[C@H]3c3ccccc3)CC2)c1` [Example 81]: the EC50 amounted to 1820 nM.

Regarding `COc1cccc(S(=O)(=O)N2C[C@@H](C(=O)N3CCN(c4cc(OC)ccc4OC)CC3)[C@H](c3ccccc3)C2)c1` [Example 82, [4-(2,5-Dimethoxyphenyl)piperazin-1-yl]-[1-(3-methoxybenzenesulfonyl)-3,4-trans-4-phenylpyrrolidin-3-yl]methanone trifluoroacetate], the EC50 was 1490 nM.

In the case of `COc1ccc(OC)c(N2CCN(C(=O)[C@@H]3CN(S(=O)(=O)c4cccc5nonc45)C[C@H]3c3ccccc3)CC2)c1` [Example 83, [1-(Benzo[1,2,5]oxadiazole-4-sulfonyl)-3,4-trans-4-phenylpyrrolidin-3-yl]-[4-1-(2,5-dimethoxyphenyl)piperazin-1-yl]methanone trifluoroacetate], the EC50 came to 3000 nM.

Regarding `COc1ccc(OC)c(N2CCN(C(=O)[C@@H]3CN(S(=O)(=O)c4cccs4)C[C@H]3c3ccccc3)CC2)c1` [Example 84, [4-(2,5-Dimethoxyphenyl)piperazin-1-yl]-[3,4-trans-4-phenyl-1-(thiophene-2-sulfonyl)pyrrolidin-3-yl]methanone trifluoroacetate], the EC50 worked out at 2670 nM.

For `Cc1ccccc1S(=O)(=O)N1C[C@@H](C(=O)N2CCN(c3cc(Cl)ccc3Cl)CC2)[C@H](c2ccccc2)C1` [Example 85, [[4-(2,5-Dichlorophenyl)piperazin-1-yl]-[3,4-trans-4-phenyl-1-(toluene-2-sulfonyl)pyrrolidin-3-yl]methanone trifluoroacetate], the EC50 is 260 nM.

For the molecule `Cc1ccc(C)c(N2CCN(C(=O)[C@@H]3CN(S(=O)(=O)c4c(C)noc4C)C[C@H]3c3ccc4c(c3)OCO4)CC2)c1` [Example 87, [3,4-trans-4-Benzo[1,3]dioxol-5-yl-1-(3,5-dimethylisoxazole-4-sulfonyl)-pyrrolidin-3-yl]-[4-(2,5-dimethylphenyl)piperazin-1-yl]methanone trifluoroacetate], the EC50 is 1230 nM.

For `COc1cccc(S(=O)(=O)N2C[C@@H](C(=O)N3CCN(c4cc(C)ccc4C)CC3)[C@H](c3ccc4c(c3)OCO4)C2)c1` [Example 88, [3,4-trans-4-Benzo[1,3]dioxol-5-yl-1-(3-methoxybenzenesulfonyl)pyrrolidin-3-yl]-[4-(2,5-dimethylphenyl)piperazin-1-yl]methanone trifluoroacetate], the EC50 was found to be 2720 nM.

For `Cc1ccc(C)c(N2CCN(C(=O)[C@@H]3CN(S(=O)(=O)c4c(C)noc4C)C[C@H]3C)CC2)c1` [Example 90, [[1-(3,5-Dimethylisoxazole-4-sulfonyl)-3,4-trans-4-methylpyrrolidin-3-yl]-[4-(2,5-dimethylphenyl)piperazin-1-yl]methanone trifluoroacetate], the EC50 is 16800 nM.

For `COc1cccc(S(=O)(=O)N2C[C@@H](C)[C@H](C(=O)N3CCN(c4cc(C)ccc4C)CC3)C2)c1` [Example 91, [3,4-trans-4-(2,5-Dimethylphenyl)piperazin-1-yl]-[1-(3-methoxybenzene-sulfonyl)-4-methylpyrrolidin-3-yl]methanone trifluoroacetate], the EC50 was 2340 nM.

As to `Cc1ccc(C)c(N2CCN(C(=O)[C@@H]3CN(S(=O)(=O)c4c(C)noc4C)C[C@H]3Cc3ccccc3)CC2)c1` [Example 93, [3,4-trans-4-Benzyl-1-(3,5-dimethylisoxazole-4-sulfonyl)pyrrolidin-3-yl]-[4-(2,5-dimethylphenyl)piperazin-1-yl]methanone trifluoroacetate], the EC50 came out at 2480 nM.

Consider `COc1cccc(S(=O)(=O)N2C[C@@H](Cc3ccccc3)[C@H](C(=O)N3CCN(c4cc(C)ccc4C)CC3)C2)c1` [Example 94, [3,4-trans-4-Benzyl-1-(3-methoxybenzenesulfonyl)pyrrolidin-3-yl]-[4-(2,5-dimethylphenyl)piperazin-1-yl]methanone trifluoroacetate], for which the EC50 worked out at 2930 nM.

As for `Cc1ccc(C)c(N2CCN(C(=O)[C@@H]3CN(S(=O)(=O)c4c(C)noc4C)C[C@H]3C(C)C)CC2)c1` [Example 95, [1-(3,5-Dimethyl isoxazole-4-sulfonyl)-3,4-trans-4-isopropylpyrrolidin-3-yl]-[4-(2,5-dimethylphenyl)piperazin-1-yl]methanone trifluoroacetate], the EC50 amounted to 4590 nM.

As to `COc1cccc(S(=O)(=O)N2C[C@@H](C(=O)N3CCN(c4cc(C)ccc4C)CC3)[C@H](C(C)C)C2)c1` [Example 96, [4-(2,5-Dimethylphenyl)piperazin-1-yl]-[3,4-trans-4-isopropyl-1-(3-methoxy-benzenesulfonyl)pyrrolidin-3-yl]methanone trifluoroacetate], the EC50 was determined as 3600 nM.

As for `Cc1ccc(C)c(N2CCN(C(=O)[C@@H]3CN(S(=O)(=O)c4c(C)noc4C)C[C@H]3c3ccccc3C)CC2)c1` [Example 98, [1-(3,5-Dimethylisoxazole-4-sulfonyl)-3,4-trans-4-o-tolylpyrrolidin-3-yl]-[4-(2,5-dimethylphenyl)piperazin-1-yl]methanone trifluoroacetate], the EC50 came out at 401 nM.

In the case of `COc1cccc(S(=O)(=O)N2C[C@@H](C(=O)N3CCN(c4cc(C)ccc4C)CC3)[C@H](c3ccccc3C)C2)c1` [Example 99, [4-(2,5-Dimethylphenyl)piperazin-1-yl]-[1-(3-methoxybenzenesulfonyl)-3,4-trans-4-o-tolylpyrrolidin-3-yl]methanone trifluoroacetate], the EC50 came out at 707 nM.

For `Cc1ccc(C)c(N2CCN(C(=O)[C@@H]3CN(S(=O)(=O)c4cccnc4)C[C@H]3c3ccccc3C)CC2)c1` [Example 100, [4-(2,5-Dimethylphenyl)piperazin-1-yl]-[1-(pyridine-3-sulfonyl)-3,4-trans-4-o-tolylpyrrolidin-3-yl]methanone trifluoroacetate], the EC50 is 1350 nM.
